Test results published in patent US7767659B2, “Synthesis of naturally occurring ecteinascidins and related compounds” (Pharma Mar, S.A., priority 2002, dated 2010).
Where two headings read alike, the source gives them in different places.

Columns and labels:
[1] = test system: HT-29; assay: cells; details: for GI50: read-out: GI50 HT29; for CC50: read-out: LC50 HT29; for IC (TGI): read-out: TGI HT29
Method in brief: (§1)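 Colorimetric SRB read (490 nm) on triplicate wells after 48 h at 37 °C, 5% CO2. Dose range 10 to 10^−8 μg/ml; 5×10^3 cells/well pre-attached 18 h.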

[2] = test system: A-549; assay: cells; details: for GI50: read-out: GI50 A549; for CC50: read-out: LC50 A549; for IC (TGI): read-out: TGI A549
Method in brief: as §1

[3] = test system: LoVo; assay: cells; details: for GI50: read-out: LOVO GI50; for CC50: read-out: LOVO LC50; for IC (TGI): read-out: LOVO TGI
Method in brief: as §1

[4] = test system: LoVo-Dox; assay: Inhibition of cells growth by colorimetric assay (SRB); details: for GI50: read-out: LOVO-DOX GI50; for CC50: read-out: LOVO-DOX LC50; for IC (TGI): read-out: LOVO-DOX TGI
Method in brief: as §1

[5] = test system: LNCaP; assay: as above; details: for GI50: read-out: GI50 LNCAP; for CC50: read-out: LC50 LNCAP; for IC (TGI): read-out: TGI LNCAP
Method in brief: as §1

[6] = test system: K-562; assay: as above; details: for GI50: read-out: K562 GI50; for CC50: read-out: K562 LC50; for IC (TGI): read-out: K562 TGI
Method in brief: as §1

[7] = test system: IGROV-ET; assay: as above; details: for GI50: read-out: IGROV-ET GI50; for CC50: read-out: IGROV-ET LC50; for IC (TGI): read-out: IGROV-ET TGI
Method in brief: as §1

[8] = test system: IGROV-1; assay: as above; details: for GI50: read-out: IGROV GI50; for CC50: read-out: IGROV LC50; for IC (TGI): read-out: IGROV TGI
Method in brief: as §1

[9] = test system: HeLa; assay: as above; details: for GI50: read-out: HELA GI50; for CC50: read-out: HELA LC50; for IC (TGI): read-out: HELA TGI
Method in brief: as §1

[10] = test system: SK-MEL-28; assay: as above; details: for GI50: read-out: GI50 MEL-28; for CC50: read-out: LC50 MEL-28; for IC (TGI): read-out: TGI MEL-28
Method in brief: as §1

[11] = test system: PANC-1; assay: as above; details: for GI50: read-out: PANC-1 GI50; for CC50: read-out: PANC-1 LC50; for IC (TGI): read-out: PANC-1 TGI
Method in brief: as §1

[12] = test system: SK-BR-3; assay: as above; details: for GI50: read-out: SK-BR3 GI50; for CC50: read-out: SK-BR3 LC50; for IC (TGI): read-out: SK-BR3 TGI
Method in brief: as §1

[13] = test system: HeLa-APL; assay: as above; details: for GI50: read-out: HELA-APL GI50; for CC50: read-out: HELA-APL LC50; for IC (TGI): read-out: HELA-APL TGI
Method in brief: as §1

[14] = test system: DU-145; assay: as above; details: for GI50: read-out: GI50 DU145; for CC50: read-out: LC50 DU145; for IC (TGI): read-out: TGI DU145
Method in brief: as §1

## COc1c(C)cc2c(c1OC(=O)/C=C/c1ccccc1)[C@H]1N[C@@H](C2)[C@H](C#N)N2C1[C@@H]1SCC(NC(=O)C(F)(F)F)C(=O)OC[C@H]2c2c3c(c(C)c(OC(C)=O)c21)OCO3 (stereo partly drawn) [compound 34]
[1]; Homo sapiens, HT-29, 48 h
  GI50: 62 nM
  CC50: 1640 nM
  IC (TGI): 165 nM
[2]; Homo sapiens, A549, 48 h
  GI50: 55.3 nM
  CC50: 611 nM
  IC (TGI): 184 nM
[3]; Homo sapiens, LoVo, 48 h
  GI50: 28.7 nM
  CC50: 98.6 nM
  IC (TGI): 53.2 nM
[4]; Homo sapiens, 48 h
  GI50: 140 nM
  CC50: 12000 nM
  IC (TGI): 410 nM
[5]; Homo sapiens, LNCaP, 48 h
  GI50: 22 nM
  CC50: 147 nM
  IC (TGI): 52.1 nM
[6]; Homo sapiens, K562, 48 h
  GI50: 16.2 nM
  CC50: 146 nM
  IC (TGI): 45 nM
[7]; Homo sapiens, 48 h
  GI50: 89.5 nM
  CC50: 860 nM
  IC (TGI): 262 nM
[8]; Homo sapiens, IGROV-1, 48 h
  GI50: 29.2 nM
  CC50: 117 nM
  IC (TGI): 58.3 nM
[9]; Homo sapiens, HeLa, 48 h
  GI50: 33.5 nM
  CC50: 116 nM
  IC (TGI): 62.4 nM
[10]; Homo sapiens, SK-MEL-28, 48 h
  GI50: 32.7 nM
  CC50: 111 nM
  IC (TGI): 60.3 nM
[11]; Homo sapiens, PANC-1, 48 h
  GI50: 51.1 nM
  CC50: 841 nM
  IC (TGI): 123 nM
[12]; Homo sapiens, SK-BR-3, 48 h
  GI50: 12.7 nM
  CC50: 626 nM
  IC (TGI): 70.1 nM
[13]; Homo sapiens, 48 h
  GI50: 33.9 nM
  CC50: 108 nM
  IC (TGI): 60.5 nM
[14]; Homo sapiens, DU-145, 48 h
  GI50: 51.1 nM
  CC50: 53.7 nM
  IC (TGI): 98.7 nM

## COc1c(C)cc2c(c1O)C1C3C4SCC(NC(C)=O)C(=O)OCC(c5c6c(c(C)c(OC(C)=O)c54)OCO6)N3C(C#N)C(C2)N1C(C)=O (stereo not drawn) [compound 35]
[1]; HT29, SRB, 48 hours exposure
  TGI HT29: 8.18E−06 Molar
  GI50: 602 nM
  CC50: 14400 nM
[2]; A549, SRB, 48 hours exposure
  TGI A549: 5.96E−06 Molar
  GI50: 2930 nM
  CC50: 12100 nM
[3]; SRB assay, 48 hours exposure, LOVO, total growth inhibition
  LOVO TGI: 2.14E−06 Molar
[3]; SRB assay, 48 hours exposure, LOVO
  GI50: 564 nM
[3]; SRB assay, 48 hours exposure, LOVO, cell killing
  CC50: 14400 nM
[4]; SRB assay, 48 hours exposure, LOVO-DOX, total growth inhibition
  LOVO-DOX TGI: 1.44E−05 Molar
[4]; SRB assay, 48 hours exposure, LOVO-DOX
  GI50: 5750 nM
[4]; SRB assay, 48 hours exposure, LOVO-DOX, cell killing
  CC50: 14400 nM
[5]; LNCAP, SRB, 48 hours exposure
  TGI LNCAP: 3.97E−07 Molar
  GI50: 189 nM
  CC50: 834 nM
[6]; SRB assay, 48 hours exposure, K562, total growth inhibition
  K562 TGI: 1.13E−06 Molar
[6]; SRB assay, 48 hours exposure, K562
  GI50: 193 nM
[6]; SRB assay, 48 hours exposure, K562, cell killing
  CC50: 9770 nM
[7]; SRB assay, 48 hours exposure, IGROV-ET, total growth inhibition
  IGROV-ET TGI: 6.35E−06 Molar
[7]; SRB assay, 48 hours exposure, IGROV-ET
  GI50: 2300 nM
[7]; SRB assay, 48 hours exposure, IGROV-ET, cell killing
  CC50: 14400 nM
[8]; SRB assay, 48 hours exposure, IGROV, total growth inhibition
  IGROV TGI: 1.69E−06 Molar
[8]; SRB assay, 48 hours exposure, IGROV
  GI50: 420 nM
[8]; SRB assay, 48 hours exposure, IGROV, cell killing
  CC50: 8630 nM
[9]; SRB assay, 48 hours exposure, HELA, total growth inhibition
  HELA TGI: 8.37E−07 Molar
[9]; SRB assay, 48 hours exposure, HELA
  GI50: 396 nM
[9]; SRB assay, 48 hours exposure, HELA, cell killing
  CC50: 3390 nM
[10]; MEL-28, SRB, 48 hours exposure
  TGI MEL-28: 8.63E−07 Molar
  GI50: 390 nM
  CC50: 3190 nM
[11]; SRB assay, 48 hours exposure, PANC-1, total growth inhibition
  PANC-1 TGI: 1.41E−06 Molar
[11]; SRB assay, 48 hours exposure, PANC-1
  GI50: 471 nM
[11]; SRB assay, 48 hours exposure, PANC-1, cell killing
  CC50: 14400 nM
[12]; SRB assay, 48 hours exposure, SK-BR3, total growth inhibition
  SK-BR3 TGI: 1.10E−06 Molar
[12]; SRB assay, 48 hours exposure, SK-BR3
  GI50: 396 nM
[12]; SRB assay, 48 hours exposure, SK-BR3, cell killing
  CC50: 9350 nM
[13]; SRB assay, 48 hours exposure, HELA-APL, total growth inhibition
  HELA-APL TGI: 1.09E−06 Molar
[13]; SRB assay, 48 hours exposure, HELA-APL
  GI50: 458 nM
[13]; SRB assay, 48 hours exposure, HELA-APL, cell killing
  CC50: 5920 nM
[14]; DU145, SRB, 48 hours exposure
  TGI DU145: 1.20E−06 Molar
  GI50: 570 nM
  CC50: 10300 nM

## COc1c(C)cc2c(c1O)[C@H]1N[C@@H](C2)[C@H](O)N2C1[C@@H]1SCC(NC(C)=O)C(=O)OC[C@H]2c2c3c(c(C)c(OC(C)=O)c21)OCO3 (stereo partly drawn) [compound 36]
[1]; Homo sapiens, HT-29, 48 h
  GI50: 2.73 nM
  CC50: 15600 nM
  IC (TGI): 11.7 nM
[2]; Homo sapiens, A549, 48 h
  GI50: 5.56 nM
  CC50: 83.8 nM
  IC (TGI): 22.9 nM
[3]; Homo sapiens, LoVo, 48 h
  GI50: 2.12 nM
  CC50: 15.6 nM
  IC (TGI): 5.91 nM
[4]; Homo sapiens, 48 h
  GI50: 246 nM
  CC50: 15600 nM
  IC (TGI): 1090 nM
[5]; Homo sapiens, LNCaP, 48 h
  GI50: 0.46 nM
  CC50: 5.06 nM
  IC (TGI): 1.37 nM
[6]; Homo sapiens, K562, 48 h
  GI50: 0.246 nM
  CC50: 5.11 nM
  IC (TGI): 0.7 nM
[7]; Homo sapiens, 48 h
  GI50: 27.7 nM
  CC50: 15600 nM
  IC (TGI): 71.7 nM
[8]; Homo sapiens, IGROV-1, 48 h
  GI50: 1.12 nM
  CC50: 10.4 nM
  IC (TGI): 3.79 nM
[9]; Homo sapiens, HeLa, 48 h
  GI50: 1.46 nM
  CC50: 9.82 nM
  IC (TGI): 3.85 nM
[10]; Homo sapiens, SK-MEL-28, 48 h
  GI50: 1.84 nM
  CC50: 8.71 nM
  IC (TGI): 4.01 nM
[11]; Homo sapiens, PANC-1, 48 h
  GI50: 2.82 nM
  CC50: 2600 nM
  IC (TGI): 9.72 nM
[12]; Homo sapiens, SK-BR-3, 48 h
  GI50: 2.87 nM
  CC50: 15.4 nM
  IC (TGI): 6.65 nM
[13]; Homo sapiens, 48 h
  GI50: 1.85 nM
  CC50: 10 nM
  IC (TGI): 4.3 nM
[14]; Homo sapiens, DU-145, 48 h
  GI50: 3.58 nM
  CC50: 10400 nM
  IC (TGI): 9.55 nM

## CCCCCCCCCCCCCCCC(=O)NC1CS[C@@H]2c3c(OC(C)=O)c(C)c4c(c3[C@H](COC1=O)N1C2[C@@H]2N[C@@H](Cc3cc(C)c(OC)c(O)c32)[C@@H]1O)OCO4 (stereo partly drawn) [compound 38]
[1]; Homo sapiens, HT-29, 48 h
  GI50: 653 nM
  CC50: 4730 nM
  IC (TGI): 1670 nM
[2]; Homo sapiens, A549, 48 h
  GI50: 473 nM
  CC50: 4710 nM
  IC (TGI): 1420 nM
[3]; Homo sapiens, LoVo, 48 h
  GI50: 358 nM
  CC50: 2510 nM
  IC (TGI): 793 nM
[4]; Homo sapiens, 48 h
  GI50: 1540 nM
  CC50: 6150 nM
  IC (TGI): 3080 nM
[5]; Homo sapiens, LNCaP, 48 h
  GI50: 338 nM
  CC50: 796 nM
  IC (TGI): 518 nM
[6]; Homo sapiens, K562, 48 h
  GI50: 193 nM
  CC50: 1540 nM
  IC (TGI): 510 nM
[7]; Homo sapiens, 48 h
  GI50: 365 nM
  CC50: 1480 nM
  IC (TGI): 675 nM
[8]; Homo sapiens, IGROV-1, 48 h
  GI50: 381 nM
  CC50: 4180 nM
  IC (TGI): 786 nM
[9]; Homo sapiens, HeLa, 48 h
  GI50: 317 nM
  CC50: 935 nM
  IC (TGI): 545 nM
[10]; Homo sapiens, SK-MEL-28, 48 h
  GI50: 272 nM
  CC50: 860 nM
  IC (TGI): 483 nM
[11]; Homo sapiens, PANC-1, 48 h
  GI50: 616 nM
  CC50: 4500 nM
  IC (TGI): 1380 nM
[12]; Homo sapiens, SK-BR-3, 48 h
  GI50: 194 nM
  CC50: 1070 nM
  IC (TGI): 457 nM
[13]; Homo sapiens, 48 h
  GI50: 295 nM
  CC50: 1020 nM
  IC (TGI): 549 nM
[14]; Homo sapiens, DU-145, 48 h
  GI50: 286 nM
  CC50: 1110 nM
  IC (TGI): 564 nM
